Results reported in publication PMC3151534 (Bioorganic & medicinal chemistry, 2010).
Values joined by “and” are separate entries in the source; they are usually repeats but may differ in a detail not shown here. Identical values can stand only once.

Assays:
tumor cells = settings: cited from earlier work
in vitro = settings: human; for recovery at 90 min, 10 μM: Caco-2
STAT5 = STAT5 fluorescence polarization; format: binding; settings: data not shown
[1] = system: STAT3–STAT3:DNA binding activity in NIH3T3/vSrc; format: cell-based, mouse; settings: 100 μM; for suppression of STAT3-DNA binding activity (in words): 6 and 24 hrs
[2] = Permeability and efflux analysis in Caco-2 cells; settings: human
STAT3-SH2 domain = STAT3-SH2 domain (Mus musculus, UniProt P42227); experiment: STAT3 fluorescence polarization; format: binding, murine; settings: non-phosphorylated analogs; data not shown
[3] = system: DU145, Panc-1, NIH3T3/vSrc and MDA468 cells; format: cell-based; settings: 24 hrs, lower concentrations; data not shown
gp130 (Homo sapiens) = gp130 (Homo sapiens) (UniProt P40189); experiment: SPR; settings: cited from earlier work
gp130 (Homo sapiens), sequence (P40189 whole entry, looked up): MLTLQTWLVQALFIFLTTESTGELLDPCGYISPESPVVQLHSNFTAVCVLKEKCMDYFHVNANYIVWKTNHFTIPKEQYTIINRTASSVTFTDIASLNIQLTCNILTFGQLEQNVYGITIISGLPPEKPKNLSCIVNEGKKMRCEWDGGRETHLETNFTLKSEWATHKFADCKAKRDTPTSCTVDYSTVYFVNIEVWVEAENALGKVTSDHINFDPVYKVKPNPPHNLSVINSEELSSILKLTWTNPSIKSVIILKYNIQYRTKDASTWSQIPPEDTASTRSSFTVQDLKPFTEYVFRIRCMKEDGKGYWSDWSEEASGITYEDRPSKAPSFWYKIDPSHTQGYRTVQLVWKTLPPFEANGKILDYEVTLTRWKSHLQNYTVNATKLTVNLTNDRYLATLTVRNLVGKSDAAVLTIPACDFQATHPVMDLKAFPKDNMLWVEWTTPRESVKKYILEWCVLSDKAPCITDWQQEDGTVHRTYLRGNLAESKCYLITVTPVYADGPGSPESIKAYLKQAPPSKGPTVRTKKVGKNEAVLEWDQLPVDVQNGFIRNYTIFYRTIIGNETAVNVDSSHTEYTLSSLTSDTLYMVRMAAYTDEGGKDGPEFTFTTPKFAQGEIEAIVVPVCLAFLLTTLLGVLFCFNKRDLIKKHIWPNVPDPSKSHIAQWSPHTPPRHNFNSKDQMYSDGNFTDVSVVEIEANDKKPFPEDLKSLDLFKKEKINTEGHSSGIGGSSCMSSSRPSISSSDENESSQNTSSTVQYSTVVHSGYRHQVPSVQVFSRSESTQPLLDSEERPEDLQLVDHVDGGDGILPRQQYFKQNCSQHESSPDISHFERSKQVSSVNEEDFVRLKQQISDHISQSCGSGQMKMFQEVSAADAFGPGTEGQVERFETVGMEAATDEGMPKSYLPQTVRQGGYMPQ

STAT3-SH2 domain, sequence (P42227 whole entry, the tested form may be a part): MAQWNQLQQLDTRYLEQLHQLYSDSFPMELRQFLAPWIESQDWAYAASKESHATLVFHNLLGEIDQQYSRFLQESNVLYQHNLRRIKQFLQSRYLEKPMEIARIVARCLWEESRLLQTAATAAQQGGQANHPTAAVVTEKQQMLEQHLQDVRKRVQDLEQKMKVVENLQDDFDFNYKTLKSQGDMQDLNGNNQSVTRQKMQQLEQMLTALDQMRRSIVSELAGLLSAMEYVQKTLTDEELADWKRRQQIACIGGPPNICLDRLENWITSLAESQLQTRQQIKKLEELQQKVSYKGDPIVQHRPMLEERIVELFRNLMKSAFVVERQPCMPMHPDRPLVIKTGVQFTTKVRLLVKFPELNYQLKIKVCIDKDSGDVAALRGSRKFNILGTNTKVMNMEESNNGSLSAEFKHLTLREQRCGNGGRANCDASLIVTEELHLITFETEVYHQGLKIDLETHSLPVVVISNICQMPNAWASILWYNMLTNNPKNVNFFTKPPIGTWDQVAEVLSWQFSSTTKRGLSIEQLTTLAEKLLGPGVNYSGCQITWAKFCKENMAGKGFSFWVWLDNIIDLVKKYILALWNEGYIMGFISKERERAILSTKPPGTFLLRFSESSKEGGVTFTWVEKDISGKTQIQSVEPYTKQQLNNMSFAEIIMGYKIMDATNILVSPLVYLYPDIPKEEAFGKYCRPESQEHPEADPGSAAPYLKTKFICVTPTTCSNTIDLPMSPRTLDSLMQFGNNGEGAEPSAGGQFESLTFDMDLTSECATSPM
STAT3, sequence (P40763 2-770): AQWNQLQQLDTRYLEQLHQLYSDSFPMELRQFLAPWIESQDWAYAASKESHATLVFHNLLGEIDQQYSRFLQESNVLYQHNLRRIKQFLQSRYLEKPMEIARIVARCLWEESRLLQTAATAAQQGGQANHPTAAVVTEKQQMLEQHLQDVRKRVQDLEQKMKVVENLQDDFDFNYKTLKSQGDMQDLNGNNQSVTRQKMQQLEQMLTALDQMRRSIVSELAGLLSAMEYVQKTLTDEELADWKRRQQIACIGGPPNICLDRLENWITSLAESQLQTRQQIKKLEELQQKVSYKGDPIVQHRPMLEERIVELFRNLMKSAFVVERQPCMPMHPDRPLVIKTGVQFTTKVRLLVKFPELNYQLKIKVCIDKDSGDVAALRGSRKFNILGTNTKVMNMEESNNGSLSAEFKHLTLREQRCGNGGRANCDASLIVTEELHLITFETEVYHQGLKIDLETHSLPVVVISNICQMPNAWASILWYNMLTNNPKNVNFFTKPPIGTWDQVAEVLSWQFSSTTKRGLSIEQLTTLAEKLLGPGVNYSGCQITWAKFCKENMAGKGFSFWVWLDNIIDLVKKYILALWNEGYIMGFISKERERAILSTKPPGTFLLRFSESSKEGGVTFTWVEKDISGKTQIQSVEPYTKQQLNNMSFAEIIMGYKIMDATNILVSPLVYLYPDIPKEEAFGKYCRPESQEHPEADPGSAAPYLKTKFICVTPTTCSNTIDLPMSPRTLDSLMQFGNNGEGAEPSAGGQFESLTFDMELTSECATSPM

In the case of `CC(C)C[C@H](NC(=O)[C@H](Cc1ccc(OP(=O)(O)O)cc1)NC(=O)c1ccc(C#N)cc1)C(=O)O` [ISS610], the “dosage required for cellular activities” value (tumor cells) is given as “mM dosages”.

With `CC(C)C[C@H](NC(=O)[C@H](Cc1ccc(OP(=O)(O)O)cc1)NC(=O)c1ccc(C#N)cc1)C(=O)Nc1ccc(C(=O)NCc2ccccc2)c(-c2ccc(C(N)=O)cc2)c1` [Inhibitor 14aa, 4-((S)-3-((S)-1-(6-(benzylcarbamoyl)-4′-carbamoylbiphenyl-3-ylamino)-4-methyl-1-oxopentan-2-ylamino)-2-(4-cyanobenzamido)-3-oxopropyl)phenyl dihydrogen phosphate] the recovery at 90 min, 10 μM (in vitro) was 1 to 2%, the “effect on STAT5 in FP assay” value (STAT5) was “no effect” and the “STAT3 activity after 24 h” value [1] was “partially recovered”. The “suppression of STAT3-DNA binding activity” value ([1]; after 6 h) was 80% and > 80%.

In the case of `CC(C)C[C@H](NC(=O)[C@H](Cc1ccc(O)cc1)NC(=O)c1ccc(C#N)cc1)C(=O)Nc1ccc(C(=O)NCc2ccccc2)c(-c2ccc(C(N)=O)cc2)c1` [Inhibitor 14aa-OH], the Papp at 90 min, 10 μM [2] is reported as less than 2 ×10⁻⁶ cm/s, the “suppression of STAT3-DNA binding activity (in words)” value [1] is reported as “almost the same potency as 14aa” and the “inhibition of the STAT3–phosphopeptide complex (FP)” value (STAT3-SH2 domain) is reported as “neither peptidomimetic inhibited”.

For `CC(C)C[C@H](NC(=O)[C@H](Cc1ccc(OP(=O)(O)O)cc1)NC(=O)c1ccc(C#N)cc1)C(=O)Nc1cc(C(=O)NCc2ccccc2)cc(-c2ccc(C(N)=O)cc2)c1` [Inhibitor 14ba, 4-((S)-3-(((S)-1-((5-(benzylcarbamoyl)-4′-carbamoyl-[1,1′-biphenyl]-3-yl)amino)-4-methyl-1-oxopentan-2-yl)amino)-2-(4-cyanobenzamido)-3-oxopropyl)phenyl dihydrogen phosphate], the recovery at 90 min, 10 μM (in vitro) was 1 to 2%, the Papp A→B at 90 min, 10 μM (in vitro; Caco-2, pH 7.4) was less than 0.5 ×10⁻⁶ cm/s and the “effect on STAT5 in FP assay” value (STAT5) was “no effect”. The “STAT3 activity after 24 h” value [1] was “partially recovered” and the “anti-cancer activity (cell viability, in words)” value [3] was “only limited anti-cancer activity”.

For `CC(C)C[C@H](NC(=O)[C@H](Cc1ccc(O)cc1)NC(=O)c1ccc(C#N)cc1)C(=O)Nc1cc(C(=O)NCc2ccccc2)cc(-c2ccc(C(N)=O)cc2)c1` [Inhibitor 14ba-OH, N^3-benzyl-5-((S)-2-((S)-2-(4-cyanobenzamido)-3-(4-hydroxyphenyl)propanamido)-4-methylpentanamido)-[1,1′-biphenyl]-3,4′-dicarboxamide], the Papp at 90 min, 10 μM [2] was less than 2 ×10⁻⁶ cm/s, the “suppression of STAT3-DNA binding activity (in words)” value [1] was “negligible disruption” and the “inhibition of the STAT3–phosphopeptide complex (FP)” value (STAT3-SH2 domain) was “neither peptidomimetic inhibited”.

In the case of STAT3 (from UniProt P40763), the Kd (gp130 (Homo sapiens)) is given as 24 nM.
